This passage reports remaining activity results from paper PMC8286840, “Identifying SARS-CoV-2 antiviral compounds by screening for small molecule inhibitors of Nsp3 papain-like protease” (Biochemical Journal, 2021).

Experiment [1] concerns the target T1, SARS-CoV-2 PLpro (nsp3 1564–1878) (Severe acute respiratory syndrome coronavirus 2, UniProt P0DTD1). Kind of experiment: biochemical. Also on record: FRET-quenched peptide (Pro3) cleavage by PLpro, 10 min pre-incubation, slope over 20 min, normalised to no-compound control. The conditions noted are these: high concentration screen, read-out: % of control remaining.

The target in experiment [2] is T1, SARS-CoV-2 PLpro (nsp3 1564–1878). Kind of experiment: biochemical. More on the design: FRET-quenched peptide (Pro3) cleavage by PLpro, 10 min pre-incubation, slope over 20 min, normalised to no-compound control. The conditions noted are these: low concentration screen, read-out: % of control remaining.

Structures are written as SMILES. Read-outs that look alike come from different tables or passages of the source.

As for `CC(C)c1ccc(NC(=O)Cn2cnc3c2c(=O)n(C)c(=O)n3C)cc1` [HC-030031], in experiment [1] (Well no.=5225), the remaining activity at 3.75 µM was 89.7%. Moreover, the remaining activity at 1.25 µM in experiment [2] (Well no.=5225) is 94%.
Take `Cc1c(C(=O)Nc2cccc(C(F)(F)F)c2)cc(-c2ccccc2)n1CCCN1CCOCC1` [HC-067047]: the remaining activity at 3.75 µM in experiment [1] (Well no.=5409) is 103%. Besides, in experiment [2] (Well no.=5409), the remaining activity at 1.25 µM was found to be 102%.
As to `O=C(CCc1ccc(CN[C@H](C(=O)OC2CCCC2)C2CCCCC2)cn1)NO` [HDAC-IN-3], in experiment [1] (Well no.=8172), the remaining activity at 3.75 µM was determined as 104%. In addition, the remaining activity at 1.25 µM in experiment [2] (Well no.=8172) was 105%.
`C[C@@H]1CN(C(=O)Nc2ccc(-c3nc(N4CCOCC4)c4cnn(CCCCCCC(=O)NO)c4n3)cc2)CCO1` [HDACs/mTOR Inhibitor 1]: the remaining activity at 3.75 µM in experiment [1] (Well no.=6964) was determined as 93.8%. For the same molecule, the remaining activity at 1.25 µM in experiment [2] (Well no.=6964) is 96.4%.
In the case of `CCCCC#Cc1nc(N)c2ncn([C@@H]3O[C@H](C(=O)NCC)[C@@H](O)[C@H]3O)c2n1` [HE-NECA], in experiment [1] (Well no.=756), the remaining activity at 3.75 µM was 98.5%. For the same molecule, the remaining activity at 1.25 µM in experiment [2] (Well no.=756) is 97%.
Consider `CCOc1ccc(C(Nc2ccccn2)c2ccc3ccc(C)nc3c2O)cc1C` (stereo not drawn) [HLM006474], for which the remaining activity at 3.75 µM in experiment [1] (Well no.=5926) amounted to 100%. Moreover, in experiment [2] (Well no.=5926), the remaining activity at 1.25 µM is 104%.
Turning to `CC1(C)C=C(CN2C/C(=C\c3ccc(F)cc3)C(=O)/C(=C/c3ccc(F)cc3)C2)C(C)(C)N1O` [HO-3867], the remaining activity at 3.75 µM in experiment [1] (Well no.=8518) was 102%. Also, the remaining activity at 1.25 µM in experiment [2] (Well no.=8518) stood at 101%.
On to `CC(C)(C)NCC(O)c1ccc(O)cc1Cl` (stereo not drawn) [HOKU-81], for which the remaining activity at 3.75 µM in experiment [1] (Well no.=8051) is 96.3%. In addition, the remaining activity at 1.25 µM in experiment [2] (Well no.=8051) turned out to be 93%.
Turning to `Cc1ccc(Oc2ccnc3cc(-c4cnn(C5CCNCC5)c4)ccc23)cc1` [HS-1371], the remaining activity at 3.75 µM in experiment [1] (Well no.=6820) is 85.5%. The remaining activity at 1.25 µM in experiment [2] (Well no.=6820) stood at 91.1%.
Regarding `COc1cccc(-c2cc(F)ccc2C2Cc3nc(N)nc(C)c3C(=O)N2)n1` (stereo not drawn) [HSP990 (NVP-HSP990)], the remaining activity at 3.75 µM in experiment [1] (Well no.=8934) worked out at 100%. The remaining activity at 1.25 µM in experiment [2] (Well no.=8934) worked out at 93.5%.
Take `CCC(=O)O[C@]1(C(=O)CCl)[C@@H](C)C[C@H]2[C@@H]3C[C@H](F)C4=CC(=O)C=C[C@]4(C)[C@@]3(F)[C@@H](O)C[C@@]21C` [Halobetasol Propionate]: the remaining activity at 3.75 µM in experiment [1] (Well no.=8250) was found to be 91.1%. Moreover, the remaining activity at 1.25 µM in experiment [2] (Well no.=8250) stood at 94.9%.
Regarding `COc1ccc2c3c([nH]c2c1)C(C)=NCC3` [Harmaline], the remaining activity at 3.75 µM in experiment [1] (Well no.=3286) came to 99.1%. Also, the remaining activity at 1.25 µM in experiment [2] (Well no.=3286) worked out at 99.5%.
With `Cc1nccc2c1[nH]c1ccccc12` [Harmane], the values for the remaining activity at 3.75 µM in experiment [1] (Well no.=612) and in experiment [1] (Well no.=3593) were 92% and 102%, respectively. Further, the remaining activity at 1.25 µM turned out to be 98.8% in experiment [2] (Well no.=612) and 101% in experiment [2] (Well no.=3593).
As for `COc1ccc2c(c1)[nH]c1c(C)nccc12` [Harmine], the remaining activity at 3.75 µM in experiment [1] (Well no.=2092) stood at 88.2%; in experiment [1] (Well no.=3681) it was 97.5%; in experiment [1] (Well no.=8343), 83.5%. Moreover, the remaining activity at 1.25 µM amounted to 90.6% in experiment [2] (Well no.=2092), 97.5% in experiment [2] (Well no.=3681) and 96.2% in experiment [2] (Well no.=8343).
Consider `COC(=O)C[C@](O)(CCC(C)(C)O)C(=O)O[C@@H]1C(OC)=C[C@]23CCCN2CCc2cc4c(cc2[C@H]13)OCO4` [Harringtonine], for which the remaining activity at 3.75 µM in experiment [1] (Well no.=3615) was determined as 103%. Moreover, the remaining activity at 1.25 µM in experiment [2] (Well no.=3615) amounted to 105%.
As to `CO[C@H](C)[C@](O)(C(=O)OCC1=CCN2CC[C@H](O)[C@@H]12)C(C)C` [Heliotrine], the remaining activity at 3.75 µM in experiment [1] (Well no.=3149) amounted to 104%. The remaining activity at 1.25 µM in experiment [2] (Well no.=3149) amounted to 101%.
Regarding `C[N+]1(C)CCO[C@@](O)(c2ccc(-c3ccc([C@@]4(O)C[N+](C)(C)CCO4)cc3)cc2)C1` [Hemicholinium-3], the remaining activity at 3.75 µM in experiment [1] (Well no.=474) turned out to be 95.2%. Besides, the remaining activity at 1.25 µM in experiment [2] (Well no.=474) is 97.1%.
`CCCCCCCCCCCCCCCCCCCCC(=O)O` [Heneicosanoic acid]: in experiment [1] (Well no.=4450), the remaining activity at 3.75 µM was 101%. The remaining activity at 1.25 µM in experiment [2] (Well no.=4450) is 101%.
As for `CCCCC/C=C\C[C@@H]1O[C@H]1/C=C/C(O)C/C=C\CCCC(=O)O` (stereo partly drawn) [Hepoxilin A3], the remaining activity at 3.75 µM in experiment [1] (Well no.=4339) came to 106%. In experiment [2] (Well no.=4339), the remaining activity at 1.25 µM came to 107%.
For `CCCCC/C=C\C[C@@H]1O[C@H]1C(O)/C=C\C/C=C\CCCC(=O)O` (stereo partly drawn) [Hepoxilin B3], the remaining activity at 3.75 µM in experiment [1] (Well no.=4341) stood at 96.6%. Further, the remaining activity at 1.25 µM in experiment [2] (Well no.=4341) stood at 97.9%.
Regarding `CCCCCCCCCCCCCCCCC(=O)O` [Heptadecanoic acid], the remaining activity at 3.75 µM in experiment [1] (Well no.=4308) amounted to 101%. In addition, the remaining activity at 1.25 µM in experiment [2] (Well no.=4308) turned out to be 106%.
For `CO[C@H]1[C@@H](OC)C[C@H](C)[C@@H](OC)C2=CC(=O)C=C(NC(=O)/C(C)=C/C=C\[C@H](OC)[C@@H](OC(N)=O)/C(C)=C/[C@@H]1C)C2=O` [Herbimycin A, Streptomyces sp.], the remaining activity at 3.75 µM in experiment [1] (Well no.=2419) stood at 111%. For the same molecule, in experiment [2] (Well no.=2419), the remaining activity at 1.25 µM was determined as 104%.
For `COc1ccc2cc1Oc1ccc(cc1)C[C@H]1c3cc(c(OC)cc3CCN1C)Oc1c(OC)c(OC)c(OC)c3c1[C@H](C2)N(C)CC3` [Hernandezine], the remaining activity at 3.75 µM in experiment [1] (Well no.=3151) came out at 101%. The remaining activity at 1.25 µM in experiment [2] (Well no.=3151) was 100%.
On to `CCS(=O)(=O)Nc1ccc2c(c1)/C(=C(/Nc1ccc(CN3CCCCC3)cc1)c1ccccc1)C(=O)N2` [Hesperadin], for which, in experiment [1] (Well no.=5262), the remaining activity at 3.75 µM was 88.4%. Also, the remaining activity at 1.25 µM in experiment [2] (Well no.=5262) worked out at 99.1%.
As to `COc1ccc([C@@H]2CC(=O)c3c(O)cc(O)cc3O2)cc1O` [Hesperetin], the remaining activity at 3.75 µM in experiment [1] (Well no.=6630) stood at 104%. For the same molecule, in experiment [2] (Well no.=6630), the remaining activity at 1.25 µM worked out at 103%.
Turning to `CCN1C[C@]2(C)CC[C@H](OC)[C@]34C1[C@H]([C@@H](O)[C@H]23)[C@@]1(O)CC[C@H]2C[C@@H]4[C@@H]1C(=O)O2` [Heteratisine], the remaining activity at 3.75 µM in experiment [1] (Well no.=3153) came out at 105%. Further, the remaining activity at 1.25 µM in experiment [2] (Well no.=3153) was found to be 102%.
Take `N[C@@H](Cc1cnc[nH]1)C(=O)N[C@@H](Cc1cnc[nH]1)C(=O)N[C@@H](Cc1cnc[nH]1)C(=O)N[C@@H](Cc1cnc[nH]1)C(=O)N[C@@H](Cc1cnc[nH]1)C(=O)N[C@@H](Cc1cnc[nH]1)C(=O)O` [Hexa-His]: the remaining activity at 3.75 µM in experiment [1] (Well no.=8312) was 96.4%. The remaining activity at 1.25 µM in experiment [2] (Well no.=8312) came out at 94.5%.
As for `O=C(O)CCCCCCCCCCCCCCC(=O)O` [Hexadecanedioic acid], the remaining activity at 3.75 µM in experiment [1] (Well no.=6685) was determined as 106%. Besides, the remaining activity at 1.25 µM in experiment [2] (Well no.=6685) came out at 104%.
On to `CCCCCCCCCCCCCCCC(=O)O` [Hexadecanoic acid], for which the remaining activity at 3.75 µM in experiment [1] (Well no.=4302) worked out at 97.2%. For the same molecule, in experiment [2] (Well no.=4302), the remaining activity at 1.25 µM was found to be 101%.
Take `C[N+](C)(C)CCCCCC[N+](C)(C)C` [Hexamethonium bromide]: the remaining activity at 3.75 µM in experiment [1] (Well no.=702) came to 100%. Moreover, the remaining activity at 1.25 µM in experiment [2] (Well no.=702) turned out to be 98.3%.
